The series concerns CCRIS mutagenicity, Ames/micronucleus/aberration tests. Kind of series: CCRIS mutagenicity studies.
[1] abbreviates: Test System: AMES SALMONELLA TYPHIMURIUM, Strain/Indicator: TA98, Metabolic Activation: NONE, Method: PREINCUBATION
Setting [2] is: Test System: AMES SALMONELLA TYPHIMURIUM, Strain/Indicator: TA98, Metabolic Activation: RAT LIVER S-9, PHENOBARBITAL AND BETA-NAPHTHOFLAVONE, Method: PREINCUBATION
Setting [3] is: Test System: AMES SALMONELLA TYPHIMURIUM, Strain/Indicator: TA100, Metabolic Activation: NONE, Method: PREINCUBATION
The mark [4] stands for this setting: Test System: AMES SALMONELLA TYPHIMURIUM, Strain/Indicator: TA100, Metabolic Activation: RAT LIVER S-9, PHENOBARBITAL AND BETA-NAPHTHOFLAVONE, Method: PREINCUBATION
Where [5] appears, read: Test System: AMES SALMONELLA TYPHIMURIUM, Strain/Indicator: TA1535, Metabolic Activation: NONE, Method: PREINCUBATION
Where [6] appears, read: Test System: AMES SALMONELLA TYPHIMURIUM, Strain/Indicator: TA1535, Metabolic Activation: RAT LIVER S-9, PHENOBARBITAL AND BETA-NAPHTHOFLAVONE, Method: PREINCUBATION
Where [7] appears, read: Test System: AMES SALMONELLA TYPHIMURIUM, Strain/Indicator: TA1537, Metabolic Activation: NONE, Method: PREINCUBATION
Where [8] appears, read: Test System: AMES SALMONELLA TYPHIMURIUM, Strain/Indicator: TA1537, Metabolic Activation: RAT LIVER S-9, PHENOBARBITAL AND BETA-NAPHTHOFLAVONE, Method: PREINCUBATION
Where [9] appears, read: Test System: AMES SALMONELLA TYPHIMURIUM, Strain/Indicator: TA1538, Metabolic Activation: NONE, Method: PREINCUBATION
Where [10] appears, read: Test System: AMES SALMONELLA TYPHIMURIUM, Strain/Indicator: TA1538, Metabolic Activation: RAT LIVER S-9, PHENOBARBITAL AND BETA-NAPHTHOFLAVONE, Method: PREINCUBATION
Where [11] appears, read: Test System: E.COLI, Strain/Indicator: WP2UVRA, Metabolic Activation: NONE, Method: PREINCUBATION
The mark [12] stands for this setting: Test System: E.COLI, Strain/Indicator: WP2UVRA, Metabolic Activation: RAT LIVER S-9, PHENOBARBITAL AND BETA-NAPHTHOFLAVONE, Method: PREINCUBATION

The values that follow come from PubChem BioAssay AID1259407 (Chemical Carcinogenesis Research Information System (CCRIS), 2018).

The source made the active and inactive calls. No rule for the calls is given here.

Consider `O=[N+]([O-])c1cccc2cccc([N+](=O)[O-])c12`, for which the mutagenic call (End Point: IN VITRO CHROMOSOMAL ABERRATIONS, Test System: CHL CELLS, Metabolic Activation: NONE) was “inactive; negative”; the mutagenic call (End Point: IN VITRO CHROMOSOMAL ABERRATIONS, Test System: CHL CELLS, Metabolic Activation: RAT, LIVER, S-9, SODIUM PHENOBARBITAL AND 5,6-BENZOFLAVONE) is “active; positive (structural changes)”; the mutagenic call (Test System: AMES SALMONELLA TYPHIMURIUM, Strain/Indicator: TA98, Metabolic Activation: HAMSTER, LIVER, S-9, AROCLOR 1254, FLAVIN MONONUCLEOTIDE, Method: PREINCUBATION) is “active; positive”; the mutagenic call (Test System: AMES SALMONELLA TYPHIMURIUM, Strain/Indicator: TA98, Metabolic Activation: HAMSTER, LIVER, S-9, AROCLOR 1254, Method: PREINCUBATION) was “active; positive”; the mutagenic call under setting [1] was “active; positive”; the mutagenic call under setting [2] is “active; positive”. Besides, the mutagenic call reads like this: (Test System: AMES SALMONELLA TYPHIMURIUM, Strain/Indicator: TA98, Metabolic Activation: RAT, LIVER, S-9, AROCLOR 1254, FLAVIN MONONUCLEOTIDE, Method: PREINCUBATION) “active; positive”; (Test System: AMES SALMONELLA TYPHIMURIUM, Strain/Indicator: TA98, Metabolic Activation: RAT, LIVER, S-9, AROCLOR 1254, Method: STANDARD PLATE) “active; positive”; under setting [3], “active; positive”; under setting [4], “active; positive”; under setting [5], “inactive; negative”; under setting [6], “inactive; negative”. Further, the mutagenic call runs as follows: under setting [7], “active; positive”; under setting [8], “active; positive”; under setting [9], “active; positive”; under setting [10], “active; positive”; under setting [11], “inactive; negative”; under setting [12], “active; positive”.

On to `O=C1C=CC(=O)c2c(O)c(Cl)c(Cl)c(O)c21`, for which the mutagenic call (Test System: AMES SALMONELLA TYPHIMURIUM, Strain/Indicator: TA97, Metabolic Activation: NONE, Method: PREINCUBATION) is “inactive; negative”; the mutagenic call (Test System: AMES SALMONELLA TYPHIMURIUM, Strain/Indicator: TA97, Metabolic Activation: RAT, LIVER, S-9, PHENOBARBITAL AND 5,6-BENZOFLAVONE, Method: PREINCUBATION) was “active; positive”; the mutagenic call under setting [1] was “inactive; negative”; the mutagenic call (Test System: AMES SALMONELLA TYPHIMURIUM, Strain/Indicator: TA98, Metabolic Activation: RAT, LIVER, S-9, PHENOBARBITAL AND 5,6-BENZOFLAVONE, Method: PREINCUBATION) is “inactive; negative”; the mutagenic call under setting [3] is “inactive; negative”; the mutagenic call (Test System: AMES SALMONELLA TYPHIMURIUM, Strain/Indicator: TA100, Metabolic Activation: RAT, LIVER, S-9, PHENOBARBITAL AND 5,6-BENZOFLAVONE, Method: PREINCUBATION) was “inactive; negative”. Also, the mutagenic call (Test System: AMES SALMONELLA TYPHIMURIUM, Strain/Indicator: TA102, Metabolic Activation: NONE, Method: PREINCUBATION) is “inactive; negative”; the mutagenic call (Test System: AMES SALMONELLA TYPHIMURIUM, Strain/Indicator: TA102, Metabolic Activation: RAT, LIVER, S-9, PHENOBARBITAL AND 5,6-BENZOFLAVONE, Method: PREINCUBATION) was “active; positive”; the mutagenic call (Test System: AMES SALMONELLA TYPHIMURIUM, Strain/Indicator: TA104, Metabolic Activation: NONE, Method: PREINCUBATION) is “active; positive”; the mutagenic call (Test System: AMES SALMONELLA TYPHIMURIUM, Strain/Indicator: TA104, Metabolic Activation: RAT, LIVER, S-9, PHENOBARBITAL AND 5,6-BENZOFLAVONE, Method: PREINCUBATION) is “active; positive”; the mutagenic call under setting [5] is “inactive; negative”; the mutagenic call (Test System: AMES SALMONELLA TYPHIMURIUM, Strain/Indicator: TA1535, Metabolic Activation: RAT, LIVER, S-9, PHENOBARBITAL AND 5,6-BENZOFLAVONE, Method: PREINCUBATION) is “inactive; negative”. Besides, the mutagenic call is, setting by setting: under setting [7], “inactive; negative”; (Test System: AMES SALMONELLA TYPHIMURIUM, Strain/Indicator: TA1537, Metabolic Activation: RAT, LIVER, S-9, PHENOBARBITAL AND 5,6-BENZOFLAVONE, Method: PREINCUBATION) “active; positive”; under setting [9], “inactive; negative”; (Test System: AMES SALMONELLA TYPHIMURIUM, Strain/Indicator: TA1538, Metabolic Activation: RAT, LIVER, S-9, PHENOBARBITAL AND 5,6-BENZOFLAVONE, Method: PREINCUBATION) “inactive; negative”; (Test System: AMES SALMONELLA TYPHIMURIUM, Strain/Indicator: TA2637, Metabolic Activation: NONE, Method: PREINCUBATION) “inactive; negative”; (Test System: AMES SALMONELLA TYPHIMURIUM, Strain/Indicator: TA2637, Metabolic Activation: RAT, LIVER, S-9, PHENOBARBITAL AND 5,6-BENZOFLAVONE, Method: PREINCUBATION) “active; positive”.

As to `CCc1cccc2c(CCO)c[nH]c12`, the mutagenic call is “inactive; negative” (Test System: AMES SALMONELLA TYPHIMURIUM, Strain/Indicator: TA98, Metabolic Activation: NONE, Method: STANDARD PLATE); “inactive; negative” (Test System: AMES SALMONELLA TYPHIMURIUM, Strain/Indicator: TA98, Metabolic Activation: RAT, LIVER, S-9, Method: STANDARD PLATE); “inactive; negative” (Test System: AMES SALMONELLA TYPHIMURIUM, Strain/Indicator: TA100, Metabolic Activation: NONE, Method: STANDARD PLATE); “inactive; negative” (Test System: AMES SALMONELLA TYPHIMURIUM, Strain/Indicator: TA100, Metabolic Activation: RAT, LIVER, S-9, Method: STANDARD PLATE); “inactive; negative” (Test System: AMES SALMONELLA TYPHIMURIUM, Strain/Indicator: TA1535, Metabolic Activation: NONE, Method: STANDARD PLATE); “inactive; negative” (Test System: AMES SALMONELLA TYPHIMURIUM, Strain/Indicator: TA1535, Metabolic Activation: RAT, LIVER, S-9, Method: STANDARD PLATE). In addition, the mutagenic call runs as follows: (Test System: AMES SALMONELLA TYPHIMURIUM, Strain/Indicator: TA1537, Metabolic Activation: NONE, Method: STANDARD PLATE) “inactive; negative”; (Test System: AMES SALMONELLA TYPHIMURIUM, Strain/Indicator: TA1537, Metabolic Activation: RAT, LIVER, S-9, Method: STANDARD PLATE) “inactive; negative”; (Test System: E. COLI, Strain/Indicator: WP2 UVRA, Metabolic Activation: NONE, Method: STANDARD PLATE) “inactive; negative”; (Test System: E. COLI, Strain/Indicator: WP2 UVRA, Metabolic Activation: RAT, LIVER, S-9, Method: STANDARD PLATE) “inactive; negative”.

For `O=Cc1ccc(O)cc1`, the mutagenic call under setting [1] is “inactive; negative”; the mutagenic call under setting [2] is “inactive; negative”; the mutagenic call under setting [3] is “inactive; negative”; the mutagenic call under setting [4] is “inactive; negative”; the mutagenic call under setting [5] is “inactive; negative”; the mutagenic call under setting [6] is “inactive; negative”. Further, the mutagenic call runs as follows: under setting [7], “inactive; negative”; under setting [8], “inactive; negative”; under setting [9], “inactive; negative”; under setting [10], “inactive; negative”; under setting [11], “inactive; negative”; under setting [12], “inactive; negative”.

On to `CC1CCOB(OCCC(C)OB2OCCC(C)O2)O1` (stereo not given), for which the mutagenic call (Test System: MOUSE LYMPHOMA, Strain/Indicator: L5178Y (TK+/TK-), Metabolic Activation: NONE, Method: SUSPENSION/PLATE) is “inactive; negative. reevaluation of results: negative” and the mutagenic call (Test System: MOUSE LYMPHOMA, Strain/Indicator: L5178Y (TK+/TK-), Metabolic Activation: RAT, LIVER, S-9, AROCLOR 1254, Method: SUSPENSION/PLATE) is “inactive; negative. reevaluation of results: negative”.
